Experimental findings from patent US5602128A, “N-heterocycloalkyl carboxamides as serotonergic agents” (American Home Products Corporation, priority 1994, dated 1997) are described below.

In this test the target is T1, 5-HT1A serotonin receptor (Rattus norvegicus, UniProt P19327).
T1 construct: following the procedure of Hall et al., J. Neurochem; 44, 1685(1985); from tissue
T1 sequence (P19327 1-422): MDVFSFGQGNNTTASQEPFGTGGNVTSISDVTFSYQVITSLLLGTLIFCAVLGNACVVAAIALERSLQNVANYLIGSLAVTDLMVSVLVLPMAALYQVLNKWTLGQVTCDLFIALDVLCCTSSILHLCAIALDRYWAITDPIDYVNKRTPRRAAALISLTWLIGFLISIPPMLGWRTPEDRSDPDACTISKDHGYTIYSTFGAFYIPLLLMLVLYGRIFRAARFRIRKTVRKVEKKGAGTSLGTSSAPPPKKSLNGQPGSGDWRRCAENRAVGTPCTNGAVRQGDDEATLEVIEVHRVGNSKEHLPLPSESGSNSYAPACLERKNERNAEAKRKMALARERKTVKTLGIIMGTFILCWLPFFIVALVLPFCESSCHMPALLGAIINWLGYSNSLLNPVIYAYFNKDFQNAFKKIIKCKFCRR
Kind of test: displacement of [^3 H] 8-OHDPAT from the 5-HT1A serotonin receptor (procedure of Hall et al.). To be noted: read-out: 5-HT1A Binding (IC50). The text has this: High affinity for the serotonin 5-HT1A receptor was established by testing the claimed compound's ability to displace [^3 H] 8-OHDPAT (dipropylaminotetralin) from the 5-HT1A serotonin receptor following the procedure of Hall et al., J. Neurochem. 44, 1685(1985). […] The anxiolytic activity of buspirone is believed to be, at least partially, due to its 5-HT1A receptor affinity (Vander Maclen et al., Eur. J. Pharmacol. 1986, 129 (1-2) 133-130).
The result of the standard experimental test procedure described in the preceding paragraph was as follows when applied to the representative compound of this invention: […]

One may read the IC50 as the concentration that gives 50% inhibition. In the case of `COc1ccccc1N1CCN(CCC(C(=O)NCCN2CCOCC2)c2ccccc2)CC1` (stereo not shown) [Example 1, 4-[4-(2-Methoxy-phenyl)-piperazin-1-yl]-N-(2-morpholin-4-yl-ethyl)-2phenyl-butyramide], the IC50 was determined as 95.2 nM.
